Test systems include IGROV1 ovarian; SW-620 colon; LOX IMVI melanoma; OVCAR-5 ovarian; HOP-92 NSCLC; SNB-19 CNS; SK-MEL-28 melanoma; HCT-116 colon; M14 melanoma; SR leukemia.
Assay in all cases: NCI tumour cell line growth inhibition, 48 h

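All cell lines were grown in 96-well plates and treated with compound for 48 hours. GI50 marks 50% less growth. TGI: concentration producing complete growth inhibition.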

For the compound `CN1CCN(c2c(O)c3c(c(O)c2Cl)C(=O)C=CC3=O)CC1`, the TGI in the test with IGROV1 ovarian amounted to 2.6 µM; in the test on SW-620 colon it was 0.369 µM; in the test with LOX IMVI melanoma, 1.66 µM; with OVCAR-5 ovarian, 2.93 µM; in the test with HOP-92 NSCLC it was 0.598 µM; with SNB-19 CNS, 6.32 µM. Besides, the TGI came out at 2.51 µM with SK-MEL-28 melanoma, 0.51 µM in the test with HCT-116 colon and 0.843 µM with M14 melanoma.

For `COc1cnnc2c(C)c(-c3ccccc3)nn12`, the TGI in the test with IGROV1 ovarian, with SW-620 colon, in the test with LOX IMVI melanoma, with OVCAR-5 ovarian, in the test on HOP-92 NSCLC and in the test with SNB-19 CNS was above 100 µM each time. The TGI in the test on SK-MEL-28 melanoma, in the test on HCT-116 colon and in the test on M14 melanoma was above 100 µM throughout.

`CCCC1C(C#N)(C#N)C(C#N)=C(N)C1(C)C(C)=O` (stereo unspecified): the TGI in the test with IGROV1 ovarian, in the test with SW-620 colon, in the test with LOX IMVI melanoma, in the test on OVCAR-5 ovarian, in the test with HOP-92 NSCLC and with SNB-19 CNS was above 100 µM each time. The TGI in the test with HCT-116 colon and in the test on M14 melanoma was above 100 µM in each case.

For `Cc1ccsc1/C=N/Nc1ccccn1`, the TGI in the test with IGROV1 ovarian, with SW-620 colon, in the test on LOX IMVI melanoma, with OVCAR-5 ovarian, with HOP-92 NSCLC and in the test on SNB-19 CNS was above 100 µM throughout. Besides, the TGI in the test on SK-MEL-28 melanoma, with HCT-116 colon and with M14 melanoma was above 100 µM in each case.

`O=C(NC(CO)CO)c1ccc2cc(C(=O)N3CC(CCl)c4ccc([N+](=O)[O-])cc43)[nH]c2c1` (stereo unspecified): the TGI in the test on IGROV1 ovarian, in the test on SW-620 colon, with LOX IMVI melanoma, in the test on OVCAR-5 ovarian, with HOP-92 NSCLC and with SNB-19 CNS was above 100 µM throughout. Besides, the TGI in the test on SK-MEL-28 melanoma, in the test on HCT-116 colon and with M14 melanoma was above 100 µM in each case.

Take `O=C1CC(Cl)c2c(Cl)sc(Cl)c21` (stereo unspecified): the TGI is 5.09 µM with IGROV1 ovarian; 3.61 µM in the test with SW-620 colon; 3.15 µM in the test with LOX IMVI melanoma; 34.7 µM in the test on OVCAR-5 ovarian; 3.44 µM in the test on HOP-92 NSCLC; 24 µM with SNB-19 CNS. Further, the TGI in the test with SK-MEL-28 melanoma was found to be 4.58 µM; in the test on HCT-116 colon, 3.12 µM; in the test with M14 melanoma it was 3.94 µM.

As to `O=C(NNCc1ccccc1O)c1ccccc1O`, the TGI in the test on IGROV1 ovarian is above 100 µM; with SW-620 colon, above 100 µM; in the test on LOX IMVI melanoma it was above 100 µM; in the test with OVCAR-5 ovarian, 96.3 µM; with HOP-92 NSCLC, above 100 µM; with SNB-19 CNS it was above 100 µM. Also, the TGI was above 100 µM in the test on SK-MEL-28 melanoma, above 100 µM in the test on HCT-116 colon and 24.2 µM in the test on M14 melanoma.

Turning to `CCCN(CCC)c1c([N+](=O)[O-])cc(C(=O)N(C)C)cc1[N+](=O)[O-]`, the TGI in the test with IGROV1 ovarian, in the test on OVCAR-5 ovarian, with SK-MEL-28 melanoma, in the test with HCT-116 colon and with M14 melanoma was above 100 µM each time.

As for `O=C(CCC(=O)OCC1OC(O)(CC2OC(CO)C(O)C(O)C2O)C(O)C1O)OCc1ccccc1` (stereo unspecified), the TGI in the test with IGROV1 ovarian, in the test on SW-620 colon, with LOX IMVI melanoma, in the test on OVCAR-5 ovarian, in the test with HOP-92 NSCLC and in the test with SNB-19 CNS was above 100 µM in each case. In addition, the TGI in the test with SK-MEL-28 melanoma, in the test on HCT-116 colon and with M14 melanoma was above 100 µM in each case.

On to `COC(=O)C(N)CCCC(N)C(=O)NC(C)C(=O)NC(CCC(=O)NCCCNc1ccc([N+](=O)[O-])c2[nH]c3ccccc3c(=O)c12)C(N)=O` (stereo unspecified), for which the TGI worked out at 14.7 µM in the test on SW-620 colon; 13 µM with LOX IMVI melanoma; 22.7 µM in the test on OVCAR-5 ovarian; 26.1 µM with HOP-92 NSCLC; 15 µM in the test with SNB-19 CNS; 22 µM in the test with SK-MEL-28 melanoma. In addition, the TGI was 12.4 µM in the test with HCT-116 colon and 17.9 µM in the test with M14 melanoma.

As to `CCOC(=O)CCC(NC(=O)c1ccc(NCc2ccc3nc(-c4ccccc4)c(Cl)nc3c2)c2ccccc12)C(=O)OCC` (stereo unspecified), the TGI with SW-620 colon, in the test with LOX IMVI melanoma, in the test on OVCAR-5 ovarian, in the test with HOP-92 NSCLC, in the test with SNB-19 CNS and with SK-MEL-28 melanoma was above 100 µM throughout. Further, the TGI in the test on HCT-116 colon and in the test with M14 melanoma was above 100 µM each time.

For the compound `COc1cc(C2C3=C(N=C4SC(C(C)=O)=C(C)N42)c2ccccc2CC3)cc(OC)c1OC` (stereo unspecified), the TGI in the test on IGROV1 ovarian, with SW-620 colon, in the test on LOX IMVI melanoma, in the test on OVCAR-5 ovarian, with HOP-92 NSCLC and in the test with SNB-19 CNS was above 100 µM each time. The TGI with SK-MEL-28 melanoma, in the test on HCT-116 colon and in the test with M14 melanoma was above 100 µM each time.

For the compound `C/C(=C/c1c(C)[nH]c(=O)[nH]c1=O)C(=O)O`, the TGI in the test with IGROV1 ovarian is above 1380 µM; with SW-620 colon, above 1380 µM; with LOX IMVI melanoma, above 1380 µM; with OVCAR-5 ovarian, 1370 µM; in the test with HOP-92 NSCLC, above 1380 µM; in the test with SNB-19 CNS, above 1370 µM. Further, the TGI in the test on SK-MEL-28 melanoma and with HCT-116 colon was above 1380 µM in each case. The GI50 in the test on HOP-92 NSCLC was above 1380 µM.

In the case of `Cc1oc2c(C)c3oc(=O)cc(C)c3cc2c1CN`, the TGI was above 100 µM in the test with SW-620 colon; 41.9 µM in the test on LOX IMVI melanoma; above 100 µM with OVCAR-5 ovarian; above 100 µM in the test with SNB-19 CNS; above 100 µM in the test on SK-MEL-28 melanoma; above 100 µM in the test with HCT-116 colon. Besides, the TGI in the test on M14 melanoma is above 100 µM.

With `c1ccc2nn(C3CCCCO3)nc2c1` (stereo unspecified), the TGI in the test on IGROV1 ovarian, with OVCAR-5 ovarian, in the test on SR leukemia, in the test on SNB-19 CNS, with HCT-116 colon and in the test with M14 melanoma was above 100 µM each time.

Consider `Cn1c(=O)c2[nH]c(-n3nc(-c4ccccc4)cc3N)nc2n(C)c1=O`, for which the TGI in the test on IGROV1 ovarian was 37.1 µM; with OVCAR-5 ovarian, above 100 µM; with SR leukemia, above 100 µM; with HOP-92 NSCLC, 74.9 µM; in the test on SK-MEL-28 melanoma, 57.3 µM; with HCT-116 colon, above 100 µM. This compound also returned a TGI in the test on M14 melanoma of 50 µM.

On to `CC(C)C[C@H](NC(=O)[C@H](CCc1ccccc1)NC(=O)c1ccc2ccccc2n1)B(O)O`, for which the TGI was 0.972 µM with IGROV1 ovarian; below 0.0338 µM with SW-620 colon; 0.247 µM with LOX IMVI melanoma; 0.617 µM with OVCAR-5 ovarian; 0.28 µM in the test with HOP-92 NSCLC; 13.1 µM in the test on SNB-19 CNS. Besides, the TGI was 0.055 µM in the test with SK-MEL-28 melanoma, 0.0595 µM in the test with HCT-116 colon and 0.0289 µM in the test on M14 melanoma.

Take `CC1=CC(=O)/C(=C/N2CCNC2=S)C(=O)O1`: the TGI with IGROV1 ovarian, with SW-620 colon, in the test on LOX IMVI melanoma, in the test with OVCAR-5 ovarian, in the test with HOP-92 NSCLC and in the test with SNB-19 CNS was above 100 µM each time. The TGI in the test on HCT-116 colon and in the test with M14 melanoma was above 100 µM each time.

As for `CC12CCC(C1)C(C)(C)C2OC(=O)c1ccccc1C(=O)O` (stereo unspecified), the TGI with IGROV1 ovarian, with SW-620 colon, in the test with LOX IMVI melanoma, with OVCAR-5 ovarian, with HOP-92 NSCLC and in the test on SNB-19 CNS was above 100 µM each time. Further, the TGI in the test with SK-MEL-28 melanoma, with HCT-116 colon and with M14 melanoma was above 100 µM throughout.

For `O=[N+]([O-])c1ccc(Cl)cc1N/N=C/c1cccs1`, the TGI with IGROV1 ovarian, with SW-620 colon, in the test on SR leukemia, in the test on SNB-19 CNS, in the test on SK-MEL-28 melanoma and in the test with HCT-116 colon was above 100 µM each time. Also, the TGI in the test on M14 melanoma was above 100 µM.

`CCCCNCC(O)c1cc(-c2ccc(C(F)(F)F)cc2)nc(-c2ccc(C(F)(F)F)cc2)c1` (stereo unspecified): in the test on SW-620 colon, the GI50 is 1.26 µM and the TGI is 2.96 µM. For the same compound, in the test with SK-MEL-28 melanoma, the GI50 was 2.08 µM and the TGI stood at 3.81 µM.

As to `Cc1ccc(Nc2ccc(Nc3ccc(C)cc3S(=O)(=O)O)c3c2C(=O)c2ccccc2C3=O)c(S(=O)(=O)O)c1`, the TGI with IGROV1 ovarian, in the test with SW-620 colon, in the test on SR leukemia, in the test on SNB-19 CNS, with SK-MEL-28 melanoma and with HCT-116 colon was above 100 µM throughout. The same compound came in with a TGI in the test with M14 melanoma above 100 µM.

Consider `CC(C)=CCC/C(C)=C/CC/C(C)=C/CSc1ccc(Cl)cc1C(=O)O`, for which the TGI in the test with IGROV1 ovarian was 34.8 µM; in the test with SW-620 colon it was 46.9 µM; in the test on LOX IMVI melanoma it was 32 µM; in the test with OVCAR-5 ovarian, 36.9 µM; in the test on HOP-92 NSCLC it was 45.2 µM; in the test with SNB-19 CNS, 34.4 µM. In addition, the TGI in the test with SK-MEL-28 melanoma was determined as 33.9 µM; in the test with HCT-116 colon, 31.6 µM; in the test with M14 melanoma, 36.5 µM.

In the case of `CCOC(=O)/C=C1/Nc2cc(F)c(F)cc2NC1=O`, the TGI in the test on SW-620 colon, in the test on LOX IMVI melanoma, with OVCAR-5 ovarian, with HOP-92 NSCLC, with SNB-19 CNS and in the test with SK-MEL-28 melanoma was above 100 µM each time. Moreover, the TGI with HCT-116 colon and with M14 melanoma was above 100 µM throughout.

The record behind these values is PubChem BioAssay (NCI).
